Patent publication US9284303B2, “Benzimidazole cannabinoid agonists bearing a substituted heterocyclic group” (priority 2006, dated 2016)
pEC50: −log10 of the molar value.

Legend:
[1] = molecular target: T1, human CB1 (hCB1) receptor (Homo sapiens, UniProt P21554); assay: Inhibition of forskolin-activated cAMP production upon activation of hCB1 (HTRF), CHO-K1 cells; format: cell-based; details: CB1 pEC50, hCB1-CHO-K1 cells, forskolin-activated cAMP, pEC50=-log(EC50)
T1 construct: expressed in transfected cells; host or cells: CHO-K1
T1 sequence (P21554 whole entry): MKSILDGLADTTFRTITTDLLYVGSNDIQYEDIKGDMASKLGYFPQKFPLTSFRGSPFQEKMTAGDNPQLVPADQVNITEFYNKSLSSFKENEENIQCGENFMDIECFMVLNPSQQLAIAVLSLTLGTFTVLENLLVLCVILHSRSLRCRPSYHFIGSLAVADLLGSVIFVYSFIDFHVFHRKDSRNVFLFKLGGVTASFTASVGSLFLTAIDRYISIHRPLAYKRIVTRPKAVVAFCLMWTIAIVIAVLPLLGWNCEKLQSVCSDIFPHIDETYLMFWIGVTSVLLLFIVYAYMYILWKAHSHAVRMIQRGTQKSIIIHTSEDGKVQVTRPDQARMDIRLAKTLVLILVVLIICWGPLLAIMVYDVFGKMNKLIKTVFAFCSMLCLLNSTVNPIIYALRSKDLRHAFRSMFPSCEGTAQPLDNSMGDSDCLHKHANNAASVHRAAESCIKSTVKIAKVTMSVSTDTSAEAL
Experimental: (§1) Functional activity of the test compounds was assessed by measuring their potency to inhibit forskolin-activated cAMP production upon activation of the human CB1 (hCB1) or human CB2 (hCB2) receptor through homogenous time resolved fluorescence (HTRF) assays.
CHO-K1 cells stably transfected with either hCB1 or hCB2 were grown up to 80-90% confluence in T175 Falcon flasks in DMEM/NUT MIX F-12 culture medium complemented with 2% Solution A (5.10^6 IU/l penicillin G, 5 g/l streptomycin sulphate, 5.5 g/l pyruvate, 14.6 g/l L-glutamine, 1M NaOH) and 10% foetal calf serum. Before the experiments, medium was removed, cells were washed with PBS/EDTA (140 mM NaCl, 1 mM Naz-EDTA, 8 mM Na2HPO4.2H2O, 8.5 mM KH2PO4, 2.7 mM KCl, 21 mM glucose), resuspended in stimulation buffer (HBSS 1x, IBMX 1 mM, Hepes 5 mM, MgCl2 10 mM, BSA 0.1%, pH 7.4). Cells were diluted to a concentration of 8.10^5 cell/ml for hCB1 experiments and 10^6 cells/ml for hCB2 experiments. Assays were performed using the cAMP Dynamic HTRF kit (CIS bio international, France) according to the recommendations of the manufacturer.
For CB1, each well of a 96 flat bottom black polystyrene assay plate (Costar) was filled with 25 μl stimulation buffer containing 6 μM forskolin and either test compound (in 2% DMSO), 2% DMSO or 2 μM CP55490 (in 2% DMSO). Then, 25 μl of the diluted cells was added (20,000 cells/well). After 30 minutes incubation in dark at room temperature, 25 μl cAMP-XL665 and 25 μl anti-cAMP cryptate (both at a final dilution of 1/80) was added to the cells.
After equilibration of the reaction mixtures for 1 to 24 hours in dark at room temperature, fluorescence was measured at 665 nm and 620 nm using a Discovery microplate fluorescence counter (Perkin Elmer), and the signal ratio of 665 nm/620 nm was calculated. The signal ratios of the test compounds were expressed relative to the signal ratios of the DMSO control (maximal signal ratio, no inhibition of cAMP) and CP55490 or WIN55212-2 for hCB1 and hCB2, respectively (minimal signal ratio, maximal inhibition of cAMP). From the dose response curves generated for each test compound, the dose at which 50% of the maximal inhibition of cAMP level is observed (EC50, expressed in the Tables as pEC50=−log(EC50) values) and the level of inhibition reached with 10 μM of the test compound compared to CP55490 (for hCB1) or WIN55212-2 (for hCB2) was calculated.

[2] = molecular target: T2, human CB2 (hCB2) receptor (Homo sapiens, UniProt P34972); assay: Inhibition of forskolin-activated cAMP production upon activation of hCB2 (HTRF), CHO-K1 cells; format: cell-based; details: for ratio CB2 agonism over CB1 agonism: Table C-1, selectivity hCB2 over hCB1; for ratio CB2 over CB1 agonism: Table C-3, comparison of art compounds A to E with compounds of the invention; for EC50: hCB2-CHO-K1 cells, forskolin-activated cAMP, pEC50=-log(EC50), read-out: CB2 pEC50 (converted)
T2 construct: expressed in transfected cells; host or cells: CHO-K1
T2 sequence (P34972 whole entry): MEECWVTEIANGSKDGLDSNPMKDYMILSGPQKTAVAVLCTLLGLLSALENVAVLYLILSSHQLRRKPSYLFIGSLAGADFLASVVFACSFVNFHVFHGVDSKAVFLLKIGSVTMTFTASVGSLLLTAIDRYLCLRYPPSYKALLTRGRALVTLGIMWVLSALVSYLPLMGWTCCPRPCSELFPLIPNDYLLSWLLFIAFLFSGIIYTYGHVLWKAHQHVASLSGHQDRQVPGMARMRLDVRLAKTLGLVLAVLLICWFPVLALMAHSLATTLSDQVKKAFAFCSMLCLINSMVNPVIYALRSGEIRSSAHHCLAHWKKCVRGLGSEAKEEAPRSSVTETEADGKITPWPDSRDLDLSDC
Experimental: as §1
Before the experiments, medium was removed, cells were washed with PBS/EDTA (140 mM NaCl, 1 mM Naz-EDTA, 8 mM Na2HPO4.2H2O, 8.5 mM KH2PO4, 2.7 mM KCl, 21 mM glucose), resuspended in stimulation buffer (HBSS 1x, IBMX 1 mM, Hepes 5 mM, MgCl2 10 mM, BSA 0.1%, pH 7.4). Cells were diluted to a concentration of 8.10^5 cell/ml for hCB1 experiments and 10^6 cells/ml for hCB2 experiments. Assays were performed using the cAMP Dynamic HTRF kit (CIS bio international, France) according to the recommendations of the manufacturer.
Then, 20 μl of the diluted hCB2-CHO-K1 cells was added (20,000 cells/well). After 30 minutes incubation in dark at room temperature, 10 μl cAMP-XL665 and 10 μl anti-cAMP cryptate (both at a final dilution of 1/100) was added to the cells.

Row | Structure (SMILES) | pEC50 [1] | melting point [°C] | ratio CB2 agonism over CB1 agonism [2] | ratio CB2 over CB1 agonism [2] | EC50 [2] [nM] | ratio CB2 agonism over CB1 agonism ([2]; listed as 17)
1 | CC(C)(C)c1nc2cc(S(=O)(=O)c3ccc(O)nc3)ccc2n1CC1CCOCC1 [Co. No. 1] | < 5.00 | 251 | >1995 | 1995 | 5.01 | –
2 | CC(C)(C)c1nc2cc(S(=O)(=O)c3cc[n+]([O-])cc3)ccc2n1CC1CCOCC1 [Co. No. 3] | 6.16 | 203 | – | – | 1.74 | –
3 | CC(=O)c1ccc(S(=O)(=O)c2ccc3c(c2)nc(C(C)(C)C)n3CC2CCOCC2)nc1 [Co. No. 4] | 5.49 | > 120 | 1679 | 1679 | 1.91 | –
4 | Cc1nc(-c2csc(S(=O)(=O)c3ccc4c(c3)nc(C(C)(C)C)n4CC3CCOCC3)c2)no1 [Co. No. 5] | 6.59 | 192 to 193 | 676 | – | 0.372 | –
5 | CC(C)(C)c1nc2cc(S(=O)(=O)c3ccc(S(=O)(=O)N4CCOCC4)s3)ccc2n1CC1CCOCC1 [Co. No. 7] | < 5.00 | 198 | >5495 | – | 1.82 | –
6 | CC(C)(C)c1nc2cc(S(=O)(=O)c3ccnc(O)c3)ccc2n1CC1CCOCC1 [Co. No. 8] | 5.33 | > 300 | 1514 | 1514 | 3.09 | –
7 | CC(C)(C)c1nc2cc(S(=O)(=O)c3cc(Cl)cc(Cl)n3)ccc2n1CC1CCOCC1 [Co. No. 10] | 5.02 | 137.43 | 12883 | 12883 | 0.741 | –
8 | COc1ccc(S(=O)(=O)c2ccc3c(c2)nc(C(C)(C)C)n3CC2CCOCC2)nn1 [Co. No. 11] | 7.22 | 174 to 180 | 48 | – | 1.26 | –
9 | CC(C)(C)c1nc2cc(S(=O)(=O)c3ccc(C(N)=O)o3)ccc2n1CC1CCOCC1 [Co. No. 12] | 6.33 | 234.8 | 302 | 302 | 1.55 | –
10 | CC(C)(C)c1nc2cc(S(=O)(=O)c3ccnc(C(N)=O)c3)ccc2n1CC1CCOCC1 [Co. No. 16] | 6.07 | 247.1 | 359 | – | 2.34 | –
11 | CC(C)(C)c1nc2cc(S(=O)(=O)c3ccnc(C#N)c3)ccc2n1CC1CCOCC1 [Co. No. 17] | 5.03 | 201.2 | – | 5821 | 1.58 | 5821
12 | CC(C)(C)c1nc2cc(S(=O)(=O)c3ccnc(Cl)c3)ccc2n1CC1CCOCC1 [Co. No. 18] | 6.20 | 201 | 933 | – | 0.676 | –
13 | CC(C)(C)c1nc2cc(S(=O)(=O)c3ccnc(N)c3)ccc2n1CC1CCOCC1 [Co. No. 19] | 6.14 | 235.9 | 638 | 638 | 1.12 | –
14 | CC(C)(C)c1nc2cc(S(=O)(=O)c3ccc(S(C)(=O)=O)o3)ccc2n1CC1CCOCC1 [Co. No. 20] | 6.36 | 165.2 | 347 | 346 | 1.26 | –
15 | CC(C)(C)c1nc2cc(S(=O)(=O)c3cc[n+]([O-])cc3C(F)(F)F)ccc2n1CC1CCOCC1 [Co. No. 21] | – | 205.8 | – | – | 3.8 | –
